Reference: PMC7179167 (Molecules, 2020)
Converted amounts (≈) assume the structure as drawn. Where two headings read alike, the source gives them in different places.

Experiments:
C. albicans (ATCC 10231) = assay: Disk diffusion antimicrobial test, C. albicans; format: cell-based, Candida albicans; settings: yeast, 20 mg per disc (title), concentration 20 µg (footnote); for zone of inhibition at 20 µg/disc: Candida albicans, ATCC10231, disk diffusion
Method: (§1) The newly synthesized compounds were chosen to be evaluated in vitro towards a variety of pathogenic microorganisms; Gram-positive bacteria: S. aureus (ATCC 6538) and B. subtilis (ATCC 6633); Gram-negative bacteria: P. areuginosa (ATCC 27853) and E. coli (DSMZ 1058); yeast: C. albicans (ATCC 10231) and S. cerevisiae (ATCC 9080) and fungi: A. niger (NRRL A-326) using the disk diffusion method at a single dose of 20 µl. The results are shown in Table 1 as the growth inhibition zone (mm).
(§2) The antimicrobial activity of target compounds were evaluated to be in vitro against a variety of pathogenic microorganisms, namely Staphylococcus aureus (ATCC 6538), Bacillus subtilis (ATCC 6633) (Gram-positive bacteria), Pseudomonas areuginosa (ATCC 27853), Escherichia coli (DSMZ 1058) (Gram-negative bacteria), Candida albicans (ATCC 10231), Saccharomyces cerevisiae (ATCC 9080) (Yeast) and Aspergillus niger (NRRL A-326) (Fungi) using the disk diffusion method at a single dose of 20 µg. The microorganisms were served and obtained from the Microbial Biotechnology Department, National Research Center, Giza, Egypt. Amphotericin, amoxicillin and ciprofloxacin were used as reference drugs (Oxoid™ Disks). The tested compounds 11a–c, 12a–c, 13a–i, 14a–i and 15a,b were dissolved in dimethylsulphoxide (DMSO) at a concentration of 1 mg/mL. Aliquots of 20 μl were soaked on filter paper discs (6 mm) and dried at room temperature under sterilized conditions. The paper discs were placed on inoculated agar plats and then incubated for 24 h at 37 °C for bacterial strains and after 48–72 h incubation at 30 °C for fungi. Both bacterial and yeast strains were grown on nutrient agar medium (g/l): beef extract, 3; peptone, 10 and agar, 20 at pH of 7.2. The fungal strain was grown on Czapek-Dox medium (g/l): sucrose, 30; NaNO3, 3; MgSO4.7H2O, 0.5l; KCl, 0.5; FeSO4, 0.01; K2HPO4, 1 and agar, 20 at pH of 6.0.

[1] = tested on: HCT-116 (human colon cancer); assay: MTT cytotoxicity assay, HCT-116; format: cell-based; settings: Homo sapiens; for inhibition at 100 µg/mL: HCT-116, 100 µg/ml, 48 h, read-out: Growth Inhibition (%) HCT-116; for IC50: HCT-116, 48 h, 48 h post-treatment
Method: (§3) MCF-7 (human breast cancer), HCT-116 (human colon cancer) and HepG2 (human liver cancer) cell lines were obtained from Karolinska Institute, Stockholm, Sweden. All cells were maintained in RPMI 1640 medium. The media were supplemented with 10% heat-inactivated fetal bovine serum plus 1% antibiotic-antimycoticmixture (10,000 U/mL of potassium penicillin, 10,000 μg/mL of streptomycin sulfate, 25 μg/mL of amphotericin B and 1% of L glutamine (Biowest, USA)). BJ-1 of a human skin fibroblast derived from normal foreskin was obtained from ATCC® CRL-2522™ as a frozen ampoule with about 1 × 10^6 cells per 1 ml volume. BJ-1 was maintained in MEM with 2 mM of L-glutamine and Earle’s salts medium.
(§4) Cell viability was studied using the MTT 3-(4,5-dimethylthiazol-2-yl)-2,5-diphenyl-tetrazolium bromide (Bio Basic Canada Inc. Toronto, Canada) assay [33]. The steps were executed in a sterile laminar air flow cabinet biosafety class II level (Baker, SG403INT; Sanford, ME, USA). All incubations were carried out at 37 °C in a 5% CO2 incubator under a humidified atmosphere of 95% (Sheldon, TC2323; Cornelius, OR, USA). Cells were seeded into 96-well microtiter plastic plates at a concentration of (10^4 cells/well) and allowed to adhere for 24 h. The medium was aspirated and then added to the cells with the test compounds 11a–c, 12a–c, 13a–i, 14a–i and 15a,b at a single dose of 100 μg/mL in DMSO. After incubation of the medium for 48 h, 40 μL of MTT salt (2.5 μg/mL) was added to each well and then incubated for an additional 4 h. To stop the reaction and dissolve any formed formazan crystals, 200 μL of 10% sodium dodecyl sulfate (SDS) were added to each well and incubated overnight at 37 °C. The amount of formazan product was measured at 595 nm with a reference wavelength of 690 nm as a background using a microplate reader (Bio-Rad Laboratories, model 3350, California, USA). For the untreated cells (negative control), the medium was added instead of the tested compounds. […] Dimethylsulfoxide (DMSO) was the vehicle used for dissolution of the testing compound, and its final concentration on the cells was less than 0.2%. At the same dilution, the solvent concentration was the same for all drugs and between the control and drug treatments.

[2] = tested on: normal skin fibroblast cells (BJ-1); assay: MTT cytotoxicity assay, normal skin fibroblast BJ-1; format: cell-based; settings: Homo sapiens, 48 h, read-out: Growth Inhibition (%) BJ-1
Method: as §3, §4

[3] = DPPH free radical scavenging assay; format: biochemical; settings: concentration of 20µg/l, mean ± SD of three experiments
Method: Antioxidant activity of the newly synthesized 13a–i, 14a–i, 11a–c and 12a–c were assessed in terms of hydrogen-donating or radical-scavenging ability via the stable free radical 1,1-diphenyl-2-picrylhydrazyl (DPPH) using ascorbic acid as a reference at a concentration of […].
The free radical scavenging activity (RSA) was assessed spectrophotometically at 517 nm via decoloration of the solution of the DPPH (1,1-diphenyl-2-picrylhydrazyl) radical according to Brand-Williams et al. 1995 [32]. DPPH solution was prepared by dissolving of 20 mg of DPPH in one liter of dimethylsulphoxide (DMSO). A freshly prepared DPPH solution was used for the assay. Each of the tested compounds 11a–c, 12a–c, 13a–i, 14a–i and 15a,b were dissolved in DMSO (1mg/mL). A volume of […] of a DMSO stock solution of the test compounds was added to 2 mL of freshly prepared DPPH in DMSO solution. The mixtures were shaken in a vortex (2500 rpm) for 1 min and then left to stand for 15, 30, 45 and 60 min in the dark room. The absorbance was measured at 517 nm against blank using UV visible spectrophotometer 2401 PC (Shimadzu, Kyoto, Japan). Lower absorbance of the reaction mixture indicated higher free radical scavenging activity was analyzed from the graph plots of the inhibition percentage against the compound concentration. The experiment was carried out in triplicate and averaged. The scavenging activity was calculated according to the following formula:Scavenging ability (%) = (A517 of control - A517of sample / A 517 of control) ×100(1)

[4] = tested on: HepG-2 (human liver cancer); assay: MTT cytotoxicity assay, HepG-2; format: cell-based; settings: for inhibition at 100 µg/mL: HepG2, 100 µg/ml, 48 h, read-out: Growth Inhibition (%) HepG-2; for IC50: HepG2, 48 h post-treatment
Method: as §3, §4

[5] = tested on: S. cerevisiae (ATCC 9080); assay: Disk diffusion antimicrobial test, S. cerevisiae; format: cell-based; settings: Saccharomyces cerevisiae, ATCC9080, yeast, 20 mg per disc (title), concentration 20 µg (footnote)
Method: as §1, §2

[6] = tested on: MCF-7 (human breast cancer); assay: MTT cytotoxicity assay, MCF-7; format: cell-based; settings: for inhibition at 100 µg/mL: MCF7, 100 µg/ml, 48 h, read-out: Growth Inhibition (%) MCF-7; for IC50: MCF7, 48 h post-treatment
Method: as §3, §4

S. aureus (ATCC 6538) = assay: Disk diffusion antimicrobial test, S. aureus; format: cell-based, Staphylococcus aureus; settings: 20 mg per disc (title), concentration 20 µg (footnote); for zone of inhibition at 20 µg/disc: Staphylococcus aureus, ATCC6538, Gram-positive
Method: as §1, §2

B. subtilis (ATCC 6633) = assay: Disk diffusion antimicrobial test, B. subtilis; format: cell-based, Bacillus subtilis; settings: 20 mg per disc (title), concentration 20 µg (footnote); for zone of inhibition at 20 µg/disc: Bacillus subtilis, ATCC6633, Gram-positive
Method: as §1, §2

[7] = tested on: P. aeruginosa (ATCC 27853); assay: Disk diffusion antimicrobial test, P. aeruginosa; format: cell-based, Pseudomonas areuginosa; settings: Pseudomonas aeruginosa, ATCC27853, Gram-negative, 20 mg per disc (title), concentration 20 µg (footnote)
Method: as §1, §2

[8] = 15 min, read-out: Scavenging Activity (%) on DPPH radicals at 15 min
[9] = 30 min, read-out: Scavenging Activity (%) on DPPH radicals at 30 min
[10] = 45 min, read-out: Scavenging Activity (%) on DPPH radicals at 45 min
[11] = 60 min, read-out: Scavenging Activity (%) on DPPH radicals at 60 min

Molecule	zone of inhibition at 20 µg/disc (C. albicans (ATCC 10231))	melting point	inhibition at 100 µg/mL [1]	IC50 [1]	inhibition at 100 µg/mL [2]	inhibition [3, 8]	inhibition [3, 9]	inhibition [3, 10]	inhibition [3, 11]	inhibition at 100 µg/mL [4]	IC50 [4]	zone of inhibition at 20 µg/disc [5]	inhibition at 100 µg/mL [6]	IC50 [6]	zone of inhibition at 20 µg/disc (S. aureus (ATCC 6538))	zone of inhibition at 20 µg/disc (B. subtilis (ATCC 6633))	Inhibition Zone (mm), C. albicans (ATCC 10231) (C. albicans (ATCC 10231); disk diffusion)	Inhibition Zone (mm), S. aureus (ATCC 6538) (S. aureus (ATCC 6538); Gram-positive)	Inhibition Zone (mm), B. subtilis (ATCC 6633) (B. subtilis (ATCC 6633); Gram-positive)	zone of inhibition at 20 µg/disc [7]
CCn1cc(C2=NNC3(C2)C(=O)Nc2ccccc23)c2ccccc21 (stereo not shown) [Compound 13b, 5’-(N-Ethyl-1H-indol-3-yl)-2’,4’-dihydrospiro(indoline-3,3’-pyrazol)-2-one]	18 mm	143 to 145 °C	94.5%	21.3 µg/mL (≈ 64.5 µM)	10.4%	43.5 ± 1.98%	47 ± 1.81%	56.3 ± 1.29%	65.5 ± 1.55%	81.4%	48 µg/mL (≈ 145 µM)	18 mm	95.4%	24 µg/mL (≈ 72.6 µM)						
CC1(C)S[C@@H]2[C@H](NC(=O)[C@H](N)c3ccc(O)cc3)C(=O)N2[C@H]1C(=O)O [Amoxicillin, amoxicillin, reference compound]															25.6 mm	28.4 mm				
3-(6-Hydroxy-4,6-dimethoxybenzofuran-5-yl)quinoline-4-carboxylic acid [Compound 15b]						23.6 ± 1.36%	32.7 ± 1.13%	39.2 ± 1.29%	47.5%								8 mm	8 mm	10 mm	
O=C1Nc2ccccc2C12CC(c1c[nH]c3ccccc13)=NN2 (stereo not shown) [Compound 13a, 5’-(1H-Indol-3-yl)-2’,4’-dihydrospiro(indoline-3,3’-pyrazol)-2-one]	18 mm	318 to 320 °C	96.9%	31.3 µg/mL (≈ 104 µM)	11.6%	41.1 ± 1.25%	45.8 ± 1.36%	56.5 ± 1.99%	64.1 ± 2.01%	89.3%	60.6 µg/mL (≈ 200 µM)	20 mm	96.4%	32.4 µg/mL (≈ 107 µM)						
CCOc1cc2occc2c(OC)c1C1=NNC2(C1)C(=O)Nc1ccccc12 (stereo not shown) [Compound 11c, 5’-(6-Ethoxy-4-methoxy-benzofuran-5-yl)-2’,4’-dihydrospiro(indoline-3,3’-pyrazol)-2-one]	25 mm	137 to 139 °C	30.2%		45.2%	40.6 ± 1.28%	40.6 ± 1.81%	40.6 ± 1.67%	40.6 ± 1.35%			25 mm	0%			10 mm				10 mm
CCOc1c(C2=NNC3(C2)C(=O)Nc2ccccc23)c(OC)c2ccoc2c1OC (stereo not shown) [Compound 12c, 5’-(6-Ethoxy-4,7-dimethoxy-benzofuran-5-yl)-2’,4’-dihydrospiro(indoline-3,3’-pyrazol)-2-one]	10 mm		12.4%		62.3%	9.76 ± 1.76%	10.2 ± 1.26%	11.4 ± 1.53%	14 ± 1.55%			10 mm	6.3%		10 mm	18 mm				20 mm
O=C1Nc2ccccc2C12CC(c1cn(S(=O)(=O)c3ccc(Br)cc3)c3ccccc13)=NN2 (stereo not shown) [Compound 13g, 5’-(N-(4-Bromo-benzenesulfonyl)-1H-indol-3-yl)-2’,4’-dihydrospiro(indoline-3,3’-pyrazol)-2-one]		190 to 192 °C	92.4%	35.3 µg/mL (≈ 67.7 µM)	13%	25.9 ± 1.85%	44 ± 1.46%	49.2 ± 1.77%	53.7 ± 1.81%	81.9%	72.2 µg/mL (≈ 138 µM)		91.6%	43 µg/mL (≈ 82.5 µM)						
O=C(c1ccccc1Cl)n1cc(C2=NNC3(C2)C(=O)Nc2ccccc23)c2ccccc21 (stereo not shown) [Compound 13e, 5’-(N-(2-Chloro-benzoyl)-1H-indol-3-yl)-2’,4’-dihydrospiro(indoline-3,3’-pyrazol)-2-one]		219 to 221 °C	90.4%	35.4 µg/mL (≈ 80.3 µM)	10.3%	9.1 ± 1.38%	26.1 ± 1.26%	36.7 ± 1.62%	48.1 ± 1.82%	79.8%	67.1 µg/mL (≈ 152 µM)		96.4%	31.9 µg/mL (≈ 72.4 µM)						
